Source: US9511073B2, “Aromatic amides and uses thereof” (TAXIS Pharmaceuticals, Inc., priority 2011, dated 2016)
In brackets after ≈: the same amount, converted by molar mass. Like-named read-outs stand apart in the source and are kept apart here. Values belong to the compound of their own block, whether it stands above or below them.

What was measured:
[1] = Pharmacokinetic assay: plasma concentration by LC/MS/MS after single intravenous or peroral dose of 3 mg/kg; assay type: in vivo; details: 3 mg/kg IV dosing in mice
Experimental: The pharmacokinetic profiles of selected comparator compounds A-N in Table 6 and compounds of the invention were determined by measuring the compound concentration in plasma by LC/MS/MS following a single intravenous or peroral administration of the compounds at a dose of 3 mg/kg. The concentrations described are the mean plasma concentrations at each time point from three animals. Intravenous dose formulation was administered as a single bolus dose through the tail vein. Oral dose formulation was administered to animals by an oral gavage needle. In both cases the dose volume was 5.0 mL/kg. Blood was collected from anesthetized mice through a capillary guided into the retro-orbital plexus. The collected blood was centrifuged to obtain plasma and the compounds extracted into methanol prior to determining the compound concentration by LC/MS/MS. The results are shown graphically in FIG. 1 and for the AUC and CL parameters in Table 6.

[2] = tested on: Staphylococcus aureus (Isolate ID ATCC 29213); assay: Bacterial assay: MIC by broth microdilution or agar dilution (CLSI), S. aureus ATCC 29213; assay type: cell-based; details: Staphylococcus aureus, ATCC29213, read-out: S. aureus MIC (μg/mL) Activity Range, S. aureus (ATCC29213)
Summary of the method: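 MICs by CLSI broth microdilution or agar dilution against S. aureus ATCC 29213 and its FtsZ-G196A mutant. Values reported as ranges: A ≤0.25 μg/mL, B >0.25–1.0, C >1.0–16, D >16 μg/mL.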

AUC [1]: 200 ng·h/mL
CL [1]: 203 mL/min/kg
Compound: CCOc1cnc2sc(COc3ccc(F)c(C(N)=O)c3F)nc2c1 [E]

AUC [1]: 500 ng·h/mL
CL [1]: 91 mL/min/kg
Compound: NC(=O)c1c(F)ccc(OCc2nc3cc(-c4ccccc4)cnc3s2)c1F [B]

clearance ([1]; mouse, plasma): 173 mL/min/kg
AUC ([1]; mouse, plasma, read-out: AUC): 300 ng·h/mL
Compound: NC(=O)c1c(F)ccc(OCc2nc(-c3cnc(Cl)nc3)cs2)c1F [H, 3-((4-(2-chloropyrimidin-5-yl)thiazol-2-yl)methoxy)-2,6-difluorobenzamide]

clearance ([1]; mouse, plasma): 59 mL/min/kg
AUC ([1]; mouse, plasma, read-out: AUC): 800 ng·h/mL
Compound: Cc1noc(CCc2csc(COc3ccc(F)c(C(N)=O)c3F)n2)n1 [L, 2,6-difluoro-3-((4-(2-(3-methyl-1,2,4-oxadiazol-5-yl)ethyl)thiazol-2-yl)methoxy)benzamide]

Compound: CC(Oc1ccc(F)c(C(N)=O)c1F)c1nc(-c2ccc(OC(F)(F)F)cc2)c(Br)o1 (stereo not drawn) [Compound 16, 3-(1-(5-bromo-4-(4-(trifluoromethoxy)phenyl)oxazol-2-yl)ethoxy)-2,6-difluorobenzamide]
MIC [2]: 0.25 to 1 µg/mL (≈ 0.493 to 1.97 µM)
AUC [1]: 1400 ng·h/mL
CL [1]: 36 mL/min/kg

clearance ([1]; mouse, plasma): 52 mL/min/kg
AUC ([1]; mouse, plasma, read-out: AUC): 900 ng·h/mL
Compound: NC(=O)c1c(F)ccc(OCc2nc(-c3ccc(Cl)cc3)no2)c1F [Compound A, 3-((3-(4-chlorophenyl)-1,2,4-oxadiazol-5-yl)methoxy)-2,6-difluorobenzamide]

clearance ([1]; mouse, plasma): 180 mL/min/kg
AUC ([1]; mouse, plasma, read-out: AUC): 300 ng·h/mL
Compound: COc1ncc(-c2csc(COc3ccc(F)c(C(N)=O)c3F)n2)s1 [J, 2,6-difluoro-3-((2′-methoxy-4,5′-bithiazol-2-yl)methoxy)benzamide]

clearance ([1]; mouse, plasma): 270 mL/min/kg
AUC ([1]; mouse, plasma, read-out: AUC): 200 ng·h/mL
Compound: C=CCc1oc(COc2ccc(F)c(C(N)=O)c2F)nc1-c1cccc(O)c1 [Compound N, 3-((5-allyl-4-(3-hydroxyphenyl)oxazol-2-yl)methoxy)-2,6-difluorobenzamide]

clearance ([1]; mouse, plasma): 139 mL/min/kg
AUC ([1]; mouse, plasma, read-out: AUC): 400 ng·h/mL
Compound: NC(=O)c1c(F)ccc(OCc2nc(-c3ccc(Cl)nc3)cs2)c1F [Compound F, 3-((4-(6-chloropyridin-3-yl)thiazol-2-yl)methoxy)-2,6-difluorobenzamide]

AUC [1]: 400 ng·h/mL
CL [1]: 137 mL/min/kg
Compound: CCCc1oc(COc2ccc(F)c(C(N)=O)c2F)nc1-c1ccc(Cl)cc1 [K]

clearance ([1]; mouse, plasma): 55 mL/min/kg
AUC ([1]; mouse, plasma, read-out: AUC): 900 ng·h/mL
Compound: COc1ccc(-c2nc(COc3ccc(F)c(C(N)=O)c3F)sc2-c2ccc(N(C)C)nc2)cc1 [D, 3-((5-(6-(dimethylamino)pyridin-3-yl)-4-(4-methoxyphenyl)thiazol-2-yl)methoxy)-2,6-difluorobenzamide]

clearance ([1]; mouse, plasma): 82 mL/min/kg
AUC ([1]; mouse, plasma, read-out: AUC): 600 ng·h/mL
Compound: COc1cnc(-c2csc(COc3ccc(F)c(C(N)=O)c3F)n2)cn1 [G, 2,6-difluoro-3-((4-(5-methoxypyrazin-2-yl)thiazol-2-yl)methoxy)benzamide]

clearance ([1]; mouse, plasma): 130 mL/min/kg
AUC ([1]; mouse, plasma, read-out: AUC): 400 ng·h/mL
Compound: Cc1ccc(-c2csc(COc3ccc(F)c(C(N)=O)c3F)n2)cn1 [Compound C, 2,6-difluoro-3-((4-(6-methylpyridin-3-yl)thiazol-2-yl)methoxy)benzamide]

AUC [1]: 200 ng·h/mL
CL [1]: 319 mL/min/kg
Compound: CCc1oc(COc2ccc(F)c(C(N)=O)c2F)nc1-c1ccc(OC)cc1 [I, 3-((5-ethyl-4-(4-methoxyphenyl)oxazol-2-yl)methoxy)-2,6-difluorobenzamide]

clearance ([1]; mouse, plasma): 369 mL/min/kg
AUC ([1]; mouse, plasma, read-out: AUC): 100 ng·h/mL
Compound: CCCc1oc(COc2ccc(F)c(C(N)=O)c2F)nc1-c1cccc(O)c1 [Compound M, 2,6-difluoro-3-((4-(3-hydroxyphenyl)-5-propyloxazol-2-yl)methoxy)benzamide]

Compound: COc1cc(Cl)c(Br)cc1-c1nc(C(CO)Oc2ccc(F)c(C(N)=O)c2F)oc1Br (stereo not drawn) [Compound 232, 3-(1-(5-bromo-4-(5-bromo-4-chloro-2-methoxyphenyl)oxazol-2-yl)-2-hydroxyethoxy)-2,6-difluorobenzamide]
MIC [2]: 1 to 16 µg/mL (≈ 1.72 to 27.5 µM)

Compound: NC(=O)c1c(F)ccc(OC(COCCO)c2nc(-c3ccc(C(F)(F)F)cc3)c(Br)o2)c1F (stereo not drawn) [Compound 150, 3-(1-(5-bromo-4-(4-(trifluoromethyl)phenyl)oxazol-2-yl)-2-(2-hydroxyethoxy)ethoxy)-2,6-difluorobenzamide]
MIC [2]: 0.25 to 1 µg/mL (≈ 0.454 to 1.81 µM)

Compound: NC(=O)c1c(F)ccc(OC(COC(=O)NCCn2ccccc2=O)c2nc(-c3ccc(C(F)(F)F)cc3)c(Br)o2)c1F (stereo not drawn) [Compound 217, 2-(5-bromo-4-(4-(trifluoromethyl)phenyl)oxazol-2-yl)-2-(3-carbamoyl-2,4-difluorophenoxy)ethyl (2-(2-oxopyridin-1(2H)-yl)ethyl)carbamate]
MIC [2]: 0.25 to 1 µg/mL (≈ 0.372 to 1.49 µM)

Compound: CC(Oc1ccc(F)c(C(N)=O)c1F)c1nc(Br)cs1 (stereo not drawn) [Compound 2, 3-(1-(4-bromothiazol-2-yl)ethoxy)-2,6-difluorobenzamide]
MIC [2]: 1 to 16 µg/mL (≈ 2.75 to 44.1 µM)

Compound: NC(=O)c1c(F)ccc(OC(CO)c2nc(-c3ccc(N4CCCC4)c(Br)c3)c(Br)o2)c1F (stereo not drawn) [Compound 256, 3-(1-(5-bromo-4-(3-bromo-4-(pyrrolidin-1-yl)phenyl)oxazol-2-yl)-2-hydroxyethoxy)-2,6-difluorobenzamide]
MIC [2]: 1 to 16 µg/mL (≈ 1.7 to 27.2 µM)

Compound: COc1ccc(-c2csc(C(CO)Oc3ccc(F)c(C(N)=O)c3F)n2)nc1 (stereo not drawn) [Compound 260, 2,6-difluoro-3-(2-hydroxy-1-(4-(5-methoxypyridin-2-yl)thiazol-2-yl)ethoxy)benzamide]
MIC [2]: 1 to 16 µg/mL (≈ 2.45 to 39.3 µM)

Compound: CC(=O)OCC(Oc1ccc(F)c(C(N)=O)c1F)c1nc(-c2ccc(OC(F)(F)F)cc2)c(Br)o1 (stereo not drawn) [Compound 115, 2-(5-bromo-4-(4-(trifluoromethoxy)phenyl)oxazol-2-yl)-2-(3-carbamoyl-2,4-difluorophenoxy)ethyl acetate]
MIC [2]: < 0.25 µg/mL

Compound: CN(C)C(=O)C(Oc1ccc(F)c(C(N)=O)c1F)c1nc(-c2ccc(Cl)cc2)cs1 (stereo not drawn) [Compound 31, 3-(1-(4-(4-chlorophenyl)thiazol-2-yl)-2-(dimethylamino)-2-oxoethoxy)-2,6-difluorobenzamide]
MIC [2]: 1 to 16 µg/mL (≈ 2.21 to 35.4 µM)

Compound: CCOC(=O)C(Oc1ccc(F)c(C(N)=O)c1F)c1coc(-c2ccc(C(F)(F)F)cc2)n1 (stereo not drawn) [Compound 129, ethyl 2-(3-carbamoyl-2,4-difluorophenoxy)-2-(2-(4-(trifluoromethyl)phenyl)oxazol-4-yl)acetate]
MIC [2]: 1 to 16 µg/mL (≈ 2.13 to 34 µM)

Compound: NC(=O)c1c(F)ccc(OC(COC(=O)NCCO)c2nc(-c3ccc(C(F)(F)F)cc3)c(Br)o2)c1F (stereo not drawn) [Compound 163, 2-(5-bromo-4-(4-(trifluoromethyl)phenyl)oxazol-2-yl)-2-(3-carbamoyl-2,4-difluorophenoxy)ethyl (2-hydroxyethyl)carbamate]
MIC [2]: 0.25 to 1 µg/mL (≈ 0.421 to 1.68 µM)

Compound: CCCc1oc(C(C)Oc2ccc(F)c(C(N)=O)c2F)nc1-c1ccc(OC(F)(F)F)cc1 (stereo not drawn) [Compound 20, 2,6-difluoro-3-(1-(5-propyl-4-(4-(trifluoromethoxy)phenyl)oxazol-2-yl)ethoxy)benzamide]
MIC [2]: < 0.25 µg/mL

Compound: CCNC(=O)NCC(Oc1ccc(F)c(C(N)=O)c1F)c1nc(-c2ccc(C(F)(F)F)cc2)co1 (stereo not drawn) [Compound 286, 3-(2-(3-ethylureido)-1-(4-(4-(trifluoromethyl)phenyl)oxazol-2-yl)ethoxy)-2,6-difluorobenzamide]
MIC [2]: > 16 µg/mL

Compound: Cc1noc(CNC(=O)OCC(Oc2ccc(F)c(C(N)=O)c2F)c2nc(-c3ccc(C(F)(F)F)cc3)c(Br)o2)n1 (stereo not drawn) [Compound 179, 2-(5-bromo-4-(4-(trifluoromethyl)phenyl)oxazol-2-yl)-2-(3-carbamoyl-2,4-difluorophenoxy)ethyl ((3-methyl-1,2,4-oxadiazol-5-yl)methyl)carbamate]
MIC [2]: < 0.25 µg/mL

Compound: CC(Oc1ccc(F)c(C(N)=O)c1F)c1nc(-c2ccc(C(F)(F)F)cn2)c(Br)o1 (stereo not drawn) [Compound 54]
MIC [2]: 0.25 to 1 µg/mL (≈ 0.508 to 2.03 µM)

Compound: COc1ccc(-c2nc(C(CO)Oc3ccc(F)c(C(N)=O)c3F)oc2Br)cn1 (stereo not drawn) [Compound 230, 3-(1-(5-bromo-4-(6-methoxypyridin-3-yl)oxazol-2-yl)-2-hydroxyethoxy)-2,6-difluorobenzamide]
MIC [2]: 1 to 16 µg/mL (≈ 2.13 to 34 µM)

Compound: NC(=O)c1c(F)ccc(OC(CO)c2csc(-c3ccc(C(F)(F)F)cc3)n2)c1F (stereo not drawn) [Compound 126, 2,6-difluoro-3-(2-hydroxy-1-(2-(4-(trifluoromethyl)phenyl)thiazol-4-yl)ethoxy)benzamide]
MIC [2]: 1 to 16 µg/mL (≈ 2.25 to 36 µM)

Compound: COCCOCC(Oc1ccc(F)c(C(N)=O)c1F)c1nc(-c2ccc(C(F)(F)F)cc2)c(Br)o1 (stereo not drawn) [Compound 155, 3-(1-(5-bromo-4-(4-(trifluoromethyl)phenyl)oxazol-2-yl)-2-(2-methoxyethoxy)ethoxy)-2,6-difluorobenzamide]
MIC [2]: 0.25 to 1 µg/mL (≈ 0.442 to 1.77 µM)

Compound: CN(Cc1cccnc1)C(=O)OCC(Oc1ccc(F)c(C(N)=O)c1F)c1nc(-c2ccc(C(F)(F)F)cc2)c(Br)o1 (stereo not drawn) [Compound 185, 2-(5-bromo-4-(4-(trifluoromethyl)phenyl)oxazol-2-yl)-2-(3-carbamoyl-2,4-difluorophenoxy)ethyl methyl(pyridin-3-ylmethyl)carbamate]
MIC [2]: 0.25 to 1 µg/mL (≈ 0.381 to 1.53 µM)

Compound: CCc1oc(-c2ccc(OC)cc2)nc1C(CO)Oc1ccc(F)c(C(N)=O)c1F (stereo not drawn) [Compound 306, 3-(1-(5-ethyl-2-(4-methoxyphenyl)oxazol-4-yl)-2-hydroxyethoxy)-2,6-difluorobenzamide]
MIC [2]: 1 to 16 µg/mL (≈ 2.39 to 38.2 µM)

Compound: CN(C)CC(=O)OCC(Oc1ccc(F)c(C(N)=O)c1F)c1nc(-c2ccc(C(F)(F)F)cc2)c(Br)o1 (stereo not drawn) [Compound 57, 2-(5-bromo-4-(4-(trifluoromethyl)phenyl)oxazol-2-yl)-2-(3-carbamoyl-2,4-difluorophenoxy)ethyl 2-(dimethylamino)acetate]
MIC [2]: 0.25 to 1 µg/mL (≈ 0.422 to 1.69 µM)
